Structures are written as SMILES.

Data on five molecules can be found in patent US11427548B2 (Arvinas Operations, Inc., priority 2015, dated 2022).

This assay has as its target T1, Androgen Receptor (Homo sapiens, UniProt P10275).
T1 construct: endogenous in cells; host or cells: VCaP cells
T1 sequence (P10275 1-920): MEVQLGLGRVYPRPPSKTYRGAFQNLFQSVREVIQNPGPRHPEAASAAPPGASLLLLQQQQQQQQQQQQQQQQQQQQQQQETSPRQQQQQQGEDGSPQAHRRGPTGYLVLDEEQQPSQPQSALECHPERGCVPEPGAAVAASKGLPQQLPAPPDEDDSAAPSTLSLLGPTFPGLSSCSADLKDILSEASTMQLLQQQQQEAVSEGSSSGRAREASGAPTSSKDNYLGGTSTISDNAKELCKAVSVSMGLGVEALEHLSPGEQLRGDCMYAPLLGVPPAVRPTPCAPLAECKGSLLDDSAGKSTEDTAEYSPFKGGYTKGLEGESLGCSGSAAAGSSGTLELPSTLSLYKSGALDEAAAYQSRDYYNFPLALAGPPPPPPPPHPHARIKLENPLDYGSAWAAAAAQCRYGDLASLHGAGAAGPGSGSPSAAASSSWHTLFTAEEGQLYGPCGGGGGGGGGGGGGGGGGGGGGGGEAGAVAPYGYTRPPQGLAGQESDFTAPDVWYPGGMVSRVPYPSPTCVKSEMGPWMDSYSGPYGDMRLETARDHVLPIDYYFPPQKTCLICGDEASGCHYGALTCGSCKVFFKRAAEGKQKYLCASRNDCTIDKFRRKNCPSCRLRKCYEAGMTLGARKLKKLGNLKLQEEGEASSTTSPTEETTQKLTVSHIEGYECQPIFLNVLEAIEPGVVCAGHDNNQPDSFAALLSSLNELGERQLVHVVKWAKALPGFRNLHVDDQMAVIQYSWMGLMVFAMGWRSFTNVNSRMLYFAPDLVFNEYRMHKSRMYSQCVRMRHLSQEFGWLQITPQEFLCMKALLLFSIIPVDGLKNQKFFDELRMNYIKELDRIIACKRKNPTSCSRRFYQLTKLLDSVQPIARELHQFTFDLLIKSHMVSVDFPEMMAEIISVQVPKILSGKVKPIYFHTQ
In words: Androgen Receptor ELISA assay (PathScan AR ELISA) in VCaP cells: AR degradation, Dmax and DC50. It counts as cell-based. The note with it: VCaP cells, Table 36; for DC50: read-out: VCaP DC50; for Dmax: VCaP, read-out: VCaP Dmax (%). An outline of the steps: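 VCaP cells, 30,000/well, grown ≥3 days in phenol red-free RPMI with 5% charcoal-stripped FBS; compound added in 0.1% DMSO with 0.1 nM R1881, 7 half-log doses, 24 h. Lysate AR quantified by PathScan sandwich ELISA, HRP/TMB read at 450 nm, giving DC50 and Dmax.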
Background: An ELISA detects its analyte on a solid surface through an enzyme-linked reagent.

What is called DC50 is the midpoint of the concentration-degradation curve. The Dmax is the largest share of the target that was removed. On to `COc1cc(C#N)ccc1[C@H](C)NC(=O)[C@@H]1C[C@@H](O)CN1C(=O)[C@@H](NC(=O)CCCCN1CCN(c2ccc(C(=O)N[C@H]3C(C)(C)[C@H](Oc4ccc(C#N)c(Cl)c4)C3(C)C)cn2)CC1)C(C)(C)C` [Example 784, N-((1r,3r)-3-(3-chloro-4-cyanophenoxy)-2,2,4,4-tetramethylcyclobutyl)-6-(4-(5-(((S)-1-((2S,4R)-2-(((S)-1-(4-cyano-2-methoxyphenyl)ethyl)carbamoyl)-4-hydroxypyrrolidin-1-yl)-3,3-dimethyl-1-oxobutan-2-yl)amino)-5-oxopentyl)piperazin-1-yl)nicotinamide], for which the 50% degradation concentration (DC50) is > 501 nM and the Dmax was < 25%.
`COc1cc(C#N)ccc1[C@H](C)NC(=O)[C@@H]1C[C@@H](O)CN1C(=O)[C@@H](NC(=O)COCCN1CCN(c2ccc(C(=O)N[C@H]3C(C)(C)[C@H](Oc4ccc(C#N)c(Cl)c4)C3(C)C)cn2)CC1)C(C)(C)C` [Example 785, N-((1r,3r)-3-(3-chloro-4-cyanophenoxy)-2,2,4,4-tetramethylcyclobutyl)-6-(4-(2-(2-(((S)-1-((2S,4R)-2-(((S)-1-(4-cyano-2-methoxyphenyl)ethyl)carbamoyl)-4-hydroxypyrrolidin-1-yl)-3,3-dimethyl-1-oxobutan-2-yl)amino)-2-oxoethoxy)ethyl)piperazin-1-yl)nicotinamide]: the DC50 was < 50 nM and the Dmax was in the range of 51 to 70%.
The matching figures for `Cc1ncsc1-c1ccc([C@H](C)NC(=O)C2C[C@@H](O)CN2C(=O)[C@@H](NC(=O)COCCN2[C@H](C)CN(c3ccc(C(=O)N[C@H]4C(C)(C)[C@H](Oc5ccc(C#N)c(Cl)c5)C4(C)C)cn3)C[C@@H]2C)C(C)(C)C)cc1` (stereo partly drawn) [Example 786, N-((1r,3R)-3-(3-chloro-4-cyanophenoxy)-2,2,4,4-tetramethylcyclobutyl)-6-((3S,5R)-4-(2-(2-(((2S)-1-((4R)-4-hydroxy-2-(((S)-1-(4-(4-methylthiazol-5-yl)phenyl)ethyl)carbamoyl)pyrrolidin-1-yl)-3,3-dimethyl-1-oxobutan-2-yl)amino)-2-oxoethoxy)ethyl)-3,5-dimethylpiperazin-1-yl)nicotinamide]: < 50 nM and > 71%.
With `Cc1ncsc1-c1ccc([C@H](C)NC(=O)C2C[C@@H](O)CN2C(=O)[C@@H](NC(=O)COCCN2C3CCC2CN(c2ccc(C(=O)NC4C(C)(C)C(Oc5ccc(C#N)c(Cl)c5)C4(C)C)cn2)C3)C(C)(C)C)cc1` (stereo partly drawn) [Example 787, N-((1r,3r)-3-(3-chloro-4-cyanophenoxy)-2,2,4,4-tetramethylcyclobutyl)-6-(8-(2-(2-(((2S)-1-((4R)-4-hydroxy-2-(((S)-1-(4-(4-methylthiazol-5-yl)phenyl)ethyl)carbamoyl)pyrrolidin-1-yl)-3,3-dimethyl-1-oxobutan-2-yl)amino)-2-oxoethoxy)ethyl)-3,8-diazabicyclo[3.2.1]octan-3-yl)nicotinamide], the “VCaP Dmax (%)” value is “++++ (71% ≤ Dmax)” and the DC50 was < 50 nM.
As to `Cc1ncsc1-c1ccc([C@H](C)NC(=O)C2C[C@@H](O)CN2C(=O)[C@@H](NC(=O)COCCN2CCN(c3ccc(C(=O)N[C@H]4C(C)(C)[C@H](Oc5ccc(C#N)c(Cl)c5)C4(C)C)cn3)C[C@H]2CO)C(C)(C)C)cc1` (stereo partly drawn) [Example 788, N-((1r,3S)-3-(3-chloro-4-cyanophenoxy)-2,2,4,4-tetramethylcyclobutyl)-6-((3S)-4-(2-(2-(((2S)-1-((4R)-4-hydroxy-2-(((S)-1-(4-(4-methylthiazol-5-yl)phenyl)ethyl)carbamoyl)pyrrolidin-1-yl)-3,3-dimethyl-1-oxobutan-2-yl)amino)-2-oxoethoxy)ethyl)-3-(hydroxymethyl)piperazin-1-yl)nicotinamide], the DC50 was < 50 nM and the Dmax is > 71%.
